Biological target: T1, KCNQ2/3 channels (Homo sapiens, UniProt O43525+O43526)
T1 construct: expressed in transfected cells
Test: Fluorescence assay using a voltage sensitive dye (fluorimetry)
Format: cell-based
Settings: CHO-K1 cells expressing KCNQ2/3; for Emax: CHO-K1, plateau effect relative to saturated retigabine (50 μM) = 100%, negative values = antagonistic, read-out: Fluorimetry % efficacy (retigabine = 100%); for EC50: IC50 where % efficacy is negative, read-out: Fluorimetry EC50/IC50
From the text: Method I. Fluorescence Assay Using a Voltage Sensitive Dye (Fluorimetry)
These voltage-sensitive dyes are fluorescent dyes and, therefore, are forming the link between cell potential influenced by KCNQ modulation and fluorescence intensity. A KCNQ agonist leads to an opening of the channel, potassium and dye efflux, a following hyperpolarization and a reduction of the inner fluorescence intensity in a kinetic protocol. If applying an ion jump by KCl depolarization, KCNQ agonists increase the ΔF/F value. An antagonist performs vice versa, respectively.
Therefore, ‘fluorimetry EC50’ is a measure for the compound potency. The compound efficacy is mirrored by ‘fluorimetry % efficacy’ (‘% Efficacy’) and refers to the maximum response achievable by the test compound, i.e. the plateau effect. This drug's plateau effect is related to the plateau effect, which can be achieved by applying a saturated concentration of a reference compound, e.g. Retigabine (50 μM), in independent wells of the same experimental plate or series.
[…] CHO-K1 cells expressing KCNQ2/3 channels are cultivated adherently at 37° C., 5% CO2 and 95% humidity in cell culture bottles (e.g. 80 cm^2 TC flasks, Nunc) with DMEM-high glucose (Sigma Aldrich, D7777) including 10% FCS (PAN Biotech, e.g. 3302-P270521) or alternatively MEM Alpha Medium (1×, liquid, Invitrogen, #22571), 10% fetal calf serum (FCS) (Invitrogen, #10270-106, heat-inactivated) and the necessary selection antibiotics.
The cell number is determined using a CASY™ cell counter (TCC, Schärfe System). Depending on the optimal density for each individual cell line, 20,000-30,000 cells/well/100 μl are seeded onto 96-well Corning™ CellBIND™ assay plates (Flat Clear Bottom Black Polystyrene Microplates, #3340). Freshly seeded cells are then left to settle for one hour at room temperature, followed by incubation for 24 hours at 37° C., 5% CO2 and 95% humidity.
The voltage-sensitive fluorescent dye from the Membrane Potential Assay Kit (Red™ Bulk format part R8123 for FLIPR, MDS Analytical Technologies™) is prepared by dissolving the contents of one vessel Membrane Potential Assay Kit Red Component A in 200 ml of extracellular buffer (ES buffer, 120 mM NaCl, 1 mM KCl, 10 mM HEPES, 2 mM CaCl2, 2 mM MgCl2, 10 mM glucose; pH 7.4). After removal of the nutrient medium, the cells are washed once with 200 μl of ES buffer, then loaded for 45 min at room temperature in 100 μl of dye solution in the dark.
Fluorescence measurements are carried out in a BMG Labtech FLUOstar™, BMG Labtech NOVOstar™ or BMG Labtech POLARstar™ instrument (525 nm excitation, 560 nm emission, Bottom Read mode). After incubation with the dye, 50 μl of the test substances in the desired concentrations, or 50 μl of ES buffer for control purposes, are applied to the wells of the assay plate and incubated for 30 min at room temperature while being shielded from light. The fluorescence intensity of the dye is then measured for 5 min and the fluorescence value F1 of each well is thus determined at a given, constant time. 15 μl of a KCl solution are then added to each well (final concentration of potassium ions 92 mM). The change in fluorescence intensity is subsequently monitored until all the relevant values have been obtained (mainly 5-30 min). At a given time post KCl application, a fluorescence value F2 is determined, in this case at the time of the fluorescence peak.
For calculation, the fluorescence intensity F2 is corrected for the fluorescence intensity F1, and the activity (ΔF/F) of the target compound on the potassium channel is determined as follows:
In order to determine whether a substance has agonistic activity,
[formula] can be related to
[formula] of control wells.
[formula] is determined by adding to the well only the buffer solution instead of the test substance, determining the value F1K of the fluorescence intensity, adding the potassium ions as described above, and measuring a value F2K of the fluorescence intensity.

T1 sequence (O43526 whole entry): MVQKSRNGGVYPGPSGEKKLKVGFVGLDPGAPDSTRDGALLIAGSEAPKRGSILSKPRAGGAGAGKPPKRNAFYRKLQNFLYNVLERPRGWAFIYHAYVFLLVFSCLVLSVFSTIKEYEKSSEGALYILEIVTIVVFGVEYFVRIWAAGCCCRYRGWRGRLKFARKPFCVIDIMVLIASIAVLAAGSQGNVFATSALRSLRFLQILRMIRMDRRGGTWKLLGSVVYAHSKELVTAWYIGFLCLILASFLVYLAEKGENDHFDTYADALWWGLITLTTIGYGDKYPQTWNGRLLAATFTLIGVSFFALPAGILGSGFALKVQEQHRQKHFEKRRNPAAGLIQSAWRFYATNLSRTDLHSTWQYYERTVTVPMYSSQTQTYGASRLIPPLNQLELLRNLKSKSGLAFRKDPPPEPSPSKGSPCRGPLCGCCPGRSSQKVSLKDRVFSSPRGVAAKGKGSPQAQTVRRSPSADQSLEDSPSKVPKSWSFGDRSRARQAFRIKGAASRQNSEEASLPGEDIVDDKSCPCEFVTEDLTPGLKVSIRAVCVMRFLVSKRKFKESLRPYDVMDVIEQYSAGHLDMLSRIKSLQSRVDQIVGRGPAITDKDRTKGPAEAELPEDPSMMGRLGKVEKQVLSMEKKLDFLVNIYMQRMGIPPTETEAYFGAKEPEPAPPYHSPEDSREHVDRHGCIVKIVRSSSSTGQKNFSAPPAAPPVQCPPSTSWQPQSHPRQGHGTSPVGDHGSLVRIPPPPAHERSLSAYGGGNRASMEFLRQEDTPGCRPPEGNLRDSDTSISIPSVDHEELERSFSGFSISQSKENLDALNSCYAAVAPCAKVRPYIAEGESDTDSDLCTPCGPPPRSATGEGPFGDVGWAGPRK
T1 sequence (O43525 whole entry): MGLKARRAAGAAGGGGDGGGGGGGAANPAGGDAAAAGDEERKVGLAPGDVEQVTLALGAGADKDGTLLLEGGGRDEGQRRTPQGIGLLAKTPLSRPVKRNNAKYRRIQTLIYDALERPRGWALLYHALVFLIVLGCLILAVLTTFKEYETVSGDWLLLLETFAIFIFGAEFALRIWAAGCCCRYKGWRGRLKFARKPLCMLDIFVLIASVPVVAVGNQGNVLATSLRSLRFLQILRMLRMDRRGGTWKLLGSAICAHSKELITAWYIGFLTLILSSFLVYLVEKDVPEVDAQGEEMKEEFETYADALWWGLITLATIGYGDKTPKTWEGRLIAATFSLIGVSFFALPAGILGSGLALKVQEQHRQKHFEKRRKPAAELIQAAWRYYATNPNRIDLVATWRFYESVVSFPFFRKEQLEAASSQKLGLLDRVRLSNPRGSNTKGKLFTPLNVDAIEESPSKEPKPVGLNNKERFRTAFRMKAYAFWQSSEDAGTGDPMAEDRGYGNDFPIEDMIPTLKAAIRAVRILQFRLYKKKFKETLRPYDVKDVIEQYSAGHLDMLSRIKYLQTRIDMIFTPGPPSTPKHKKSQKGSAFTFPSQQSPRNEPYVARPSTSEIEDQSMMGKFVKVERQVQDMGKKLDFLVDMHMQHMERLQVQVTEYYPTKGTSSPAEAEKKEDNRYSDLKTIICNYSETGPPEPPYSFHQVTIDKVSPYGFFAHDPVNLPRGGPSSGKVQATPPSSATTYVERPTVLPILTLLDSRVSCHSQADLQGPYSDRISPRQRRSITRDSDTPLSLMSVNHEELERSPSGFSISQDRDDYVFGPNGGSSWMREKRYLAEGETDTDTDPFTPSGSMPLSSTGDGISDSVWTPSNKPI

SMILES	Emax [%]	EC50 [nM]
CCSc1nc(N2CCCOCC2)cc(C)c1C(=O)NCc1cccc(F)c1 [Example 96, 2-Ethylsulfanyl-N-[(3-fluorophenyl)-methyl]-4-methyl-6-([1,4]oxazepan-4-yl)-pyridine-3-carboxylic acid amide]	173	1100
CCSc1nc(N2CCOC[C@H]2COC)cc(C)c1C(=O)NCc1cccc(F)c1 [Example 179, 2-Ethylsulfanyl-N-[(3-fluorophenyl)-methyl]-6-[(3R)-3-(methoxymethyl)-morpholin-4-yl]-4-methyl-pyridine-3-carboxylic acid amide]	190	243
CCSc1nc(N2CCOC[C@H]2CO)cc(C)c1C(=O)NCc1cccc(F)c1 [Example 264, 2-Ethylsulfanyl-N-[(3-fluorophenyl)-methyl]-6-[(3R)-3-(hydroxymethyl)-morpholin-4-yl]-4-methyl-pyridine-3-carboxylic acid amide]	184	1560
CCSc1nc(N2CCOCC2CCOC)cc(C)c1C(=O)NCc1cccc(F)c1 (stereo not shown) [Example 340, 2-Ethylsulfanyl-N-[(3-fluorophenyl)-methyl]-6-[3-(2-methoxy-ethyl)-morpholin-4-yl]-4-methyl-pyridine-3-carboxylic acid amide]	152	274
CSc1nc(N2CCOCC2)cc(C)c1C(=O)NCc1ccc(C(F)(F)F)cc1 [Example 157, 4-Methyl-2-methylsulfanyl-6-morpholin-4-yl-N-[[4-(trifluoromethyl)-phenyl]-methyl]-pyridine-3-carboxylic acid amide]	127	166
CSc1nc(N2CCOCC2)cc(C)c1C(=O)NCc1ccc(F)c(F)c1 [Example 155, N-[(3,4-Difluoro-phenyl)-methyl]-4-methyl-2-methylsulfanyl-6-morpholin-4-yl-pyridine-3-carboxylic acid amide]	158	152
CCN(C)c1nc(N2CCOCC2)cc(C)c1C(=O)NCCCC(C)(C)C [Example 189, N-(4,4-Dimethyl-pentyl)-2-(ethyl-methyl-amino)-4-methyl-6-morpholin-4-yl-pyridine-3-carboxylic acid amide]	225	284
CCSc1nc(N2CCOCC2)cc(C)c1C(=O)NCc1ccc(OC)c(F)c1 [Example 287, 2-Ethylsulfanyl-N-[(3-fluoro-4-methoxy-phenyl)-methyl]-4-methyl-6-morpholin-4-yl-pyridine-3-carboxylic acid amide]	153	971
CCSc1nc(N2CCOCC2)cc(C)c1C(=O)NCC(O)CC(C)C (stereo not shown) [Example 228, 2-Ethylsulfanyl-N-(2-hydroxy-4-methyl-pentyl)-4-methyl-6-morpholin-4-yl-pyridine-3-carboxylic acid amide]	180	2450
COc1nc(N2CCOCC2)cc(C)c1C(=O)NCc1ccc(F)cc1 [Example 39, N-[(4-Fluorophenyl)-methyl]-2-methoxy-4-methyl-6-morpholin-4-yl-pyridine-3-carboxylic acid amide]	143	645
CCSc1nc(N2CC3CCC(C2)O3)cc(C)c1C(=O)NCc1cccc(F)c1 [Example 325, 2-Ethylsulfanyl-N-[(3-fluorophenyl)-methyl]-4-methyl-6-(8-oxa-3-azabicyclo[3.2.1]octan-3-yl)-pyridine-3-carboxylic acid amide]	153	282
CCSc1nc(N2CCOCC2)cc(C)c1C(=O)NCCCC(C)(C)CC [Example 348, N-(4,4-Dimethyl-hexyl)-2-ethylsulfanyl-4-methyl-6-morpholin-4-yl-pyridine-3-carboxylic acid amide]	228	22
Cc1cc(N2CCOCC2)nc(N(C)C)c1C(=O)NCCCC(F)(F)F [Example 246, 2-Dimethylamino-4-methyl-6-morpholin-4-yl-N-(4,4,4-trifluoro-butyl)-pyridine-3-carboxylic acid amide]	173	4100
Cc1cc(N2CCOCC2)nc(C2CC2)c1C(=O)NCCC(O)C(C)(C)C (racemic) [Example X1, 2-Cyclopropyl-N-(3-hydroxy-4,4-dimethyl-pentyl)-4-methyl-6-morpholin-4-yl-pyridine-3-carboxylic acid amide]	–	529

Continued, values first:

Emax [%]	EC50 [nM]	SMILES
73	–	CCSc1nc(N2CCOCC2)cc(C)c1C(=O)NCCCCC#N [Example 163, N-(4-Cyano-butyl)-2-ethylsulfanyl-4-methyl-6-morpholin-4-yl-pyridine-3-carboxylic acid amide]
227	469	COc1nc(N2CCOC[C@H]2C)cc(C)c1C(=O)NCCCC(F)(F)F [Example 236, 2-Methoxy-4-methyl-6-[(3R)-3-methyl-morpholin-4-yl]-N-(4,4,4-trifluoro-butyl)-pyridine-3-carboxylic acid amide]
147	2170	CCCCNC(=O)c1c(C)cc(N2CCOCC2)nc1SCC [Example 80, N-Butyl-2-ethylsulfanyl-4-methyl-6-morpholin-4-yl-pyridine-3-carboxylic acid amide]
192	826	CCCc1nc(N2CCOCC2)cc(C)c1C(=O)NCCCC(F)(F)F [Example 320, 4-Methyl-6-morpholin-4-yl-2-propyl-N-(4,4,4-trifluoro-butyl)-pyridine-3-carboxylic acid amide]
169	98	Cc1cc(N2CCOCC2)nc(C2CC2)c1C(=O)NCc1cc(F)cc(F)c1 [Example 333, 2-Cyclopropyl-N-[(3,5-difluoro-phenyl)-methyl]-4-methyl-6-morpholin-4-yl-pyridine-3-carboxylic acid amide]
70	–	CCSc1nc(N2CCOCC2)cc(C)c1C(=O)NCCCC#N [Example 160, N-(3-Cyano-propyl)-2-ethylsulfanyl-4-methyl-6-morpholin-4-yl-pyridine-3-carboxylic acid amide]
208	63	CCSc1nc(N2CCO[C@H](C)C2)cc(C)c1C(=O)NCCCC(C)(C)C [Example 275, N-(4,4-Dimethyl-pentyl)-2-ethylsulfanyl-4-methyl-6-[(2R)-2-methyl-morpholin-4-yl]-pyridine-3-carboxylic acid amide]
197	24	Cc1cc(N2CCOC[C@H]2C)nc(C(C)C)c1C(=O)NCc1ccc(F)cc1 [Example 169, N-[(4-Fluorophenyl)-methyl]-2-isopropyl-4-methyl-6-[(3R)-3-methyl-morpholin-4-yl]-pyridine-3-carboxylic acid amide]
131	49	CCCC1COCCN1c1cc(C)c(C(=O)NCc2cccc(F)c2)c(SCC)n1 (stereo not shown) [Example 213, 2-Ethylsulfanyl-N-[(3-fluorophenyl)-methyl]-4-methyl-6-(3-propyl-morpholin-4-yl)-pyridine-3-carboxylic acid amide]
169	571	CCSc1nc(N2CCOCC2)cc(C)c1C(=O)NCCC(C)C [Example 42, 2-Ethylsulfanyl-4-methyl-N-(3-methyl-butyl)-6-morpholin-4-yl-pyridine-3-carboxylic acid amide]
33	–	CCSc1nc(N2CCOCC2)cc(C)c1C(=O)NCC(C)CC(C)(C)C (stereo not shown) [Example 306, 2-Ethylsulfanyl-4-methyl-6-morpholin-4-yl-N-(2,4,4-trimethyl-pentyl)-pyridine-3-carboxylic acid amide]
